Results from US20220088016A1, “CANCER TREATMENT USING MULTI-TARGETED KINASE INHIBITOR IN COMBINATION OF PROTEIN KINASE BIOMARKERS” (ZHEJIANG CROWNMAB BIOTECH CO. LTD., priority 2019, published 2022).

What was measured:
Assay in all cases: Kinase profiling
Format in all cases: binding
Settings in all cases: read-out: % Ctrl @ 1000 nM
[1] = molecular target: ADCK3 (Homo sapiens, UniProt Q8NI60)
[2] = molecular target: CSNK1G3 (Homo sapiens, UniProt Q9Y6M4)
[3] = molecular target: ERBB3 (Homo sapiens, UniProt P21860)
[4] = molecular target: JNK3 (Homo sapiens, UniProt P53779)
[5] = molecular target: T1, MEK4 (Homo sapiens, UniProt P45985)
T1 construct: T7 phage fusion (stated for most kinases of the panel only); made in house; host or cells: T7 phage in E. coli (BL21-derived) or HEK-293 cells

[6] = molecular target: SBK1 (Homo sapiens, UniProt Q52WX2)
Chain of SBK1 (Q52WX2 whole entry): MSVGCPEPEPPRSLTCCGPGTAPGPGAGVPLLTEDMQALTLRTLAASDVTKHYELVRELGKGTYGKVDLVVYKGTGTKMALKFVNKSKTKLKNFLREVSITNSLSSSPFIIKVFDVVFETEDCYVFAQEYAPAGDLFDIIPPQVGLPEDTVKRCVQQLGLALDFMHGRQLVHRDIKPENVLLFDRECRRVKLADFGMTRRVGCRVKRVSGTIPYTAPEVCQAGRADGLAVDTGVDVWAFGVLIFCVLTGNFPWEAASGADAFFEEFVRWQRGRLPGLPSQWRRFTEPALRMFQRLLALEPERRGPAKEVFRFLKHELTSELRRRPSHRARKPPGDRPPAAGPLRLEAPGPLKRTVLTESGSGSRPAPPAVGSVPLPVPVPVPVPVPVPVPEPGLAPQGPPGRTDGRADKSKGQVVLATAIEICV

T1 sequence (P45985 whole entry, the tested form may be a part): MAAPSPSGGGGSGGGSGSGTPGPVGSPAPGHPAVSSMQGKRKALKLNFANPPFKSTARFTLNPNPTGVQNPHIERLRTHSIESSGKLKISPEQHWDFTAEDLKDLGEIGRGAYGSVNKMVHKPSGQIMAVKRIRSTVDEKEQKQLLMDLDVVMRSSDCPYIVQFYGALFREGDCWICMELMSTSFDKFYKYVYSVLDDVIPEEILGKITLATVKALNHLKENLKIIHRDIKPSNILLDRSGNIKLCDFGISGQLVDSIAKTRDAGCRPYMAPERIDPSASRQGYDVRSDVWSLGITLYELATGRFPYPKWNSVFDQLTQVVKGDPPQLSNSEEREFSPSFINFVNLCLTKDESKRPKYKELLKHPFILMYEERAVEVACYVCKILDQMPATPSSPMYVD
Chain of ADCK3 (Q8NI60 163-647): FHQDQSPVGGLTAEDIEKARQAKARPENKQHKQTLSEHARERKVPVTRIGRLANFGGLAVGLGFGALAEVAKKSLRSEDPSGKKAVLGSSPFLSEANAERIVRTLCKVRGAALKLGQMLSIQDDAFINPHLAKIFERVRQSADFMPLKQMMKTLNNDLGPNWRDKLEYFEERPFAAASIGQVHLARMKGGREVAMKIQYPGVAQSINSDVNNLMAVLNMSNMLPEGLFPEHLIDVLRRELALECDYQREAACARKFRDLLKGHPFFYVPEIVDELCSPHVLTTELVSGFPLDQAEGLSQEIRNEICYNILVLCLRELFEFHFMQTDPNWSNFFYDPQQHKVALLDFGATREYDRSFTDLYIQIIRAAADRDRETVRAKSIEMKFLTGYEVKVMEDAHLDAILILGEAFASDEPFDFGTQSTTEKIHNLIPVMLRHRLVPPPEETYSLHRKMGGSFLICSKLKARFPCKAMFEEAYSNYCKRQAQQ
Chain of CSNK1G3 (Q9Y6M4 whole entry): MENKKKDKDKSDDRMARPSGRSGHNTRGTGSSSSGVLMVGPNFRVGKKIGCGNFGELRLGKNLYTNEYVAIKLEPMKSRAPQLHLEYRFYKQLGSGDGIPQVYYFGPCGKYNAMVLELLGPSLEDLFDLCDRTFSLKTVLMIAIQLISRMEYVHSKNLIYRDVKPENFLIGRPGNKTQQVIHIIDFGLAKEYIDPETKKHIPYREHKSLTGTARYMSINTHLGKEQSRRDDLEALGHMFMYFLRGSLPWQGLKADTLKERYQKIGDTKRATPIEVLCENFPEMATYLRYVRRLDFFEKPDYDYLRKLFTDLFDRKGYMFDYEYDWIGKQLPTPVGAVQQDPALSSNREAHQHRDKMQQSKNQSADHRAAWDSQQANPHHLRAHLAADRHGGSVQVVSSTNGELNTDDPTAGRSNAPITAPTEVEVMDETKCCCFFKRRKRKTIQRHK
Chain of JNK3 (P53779 whole entry): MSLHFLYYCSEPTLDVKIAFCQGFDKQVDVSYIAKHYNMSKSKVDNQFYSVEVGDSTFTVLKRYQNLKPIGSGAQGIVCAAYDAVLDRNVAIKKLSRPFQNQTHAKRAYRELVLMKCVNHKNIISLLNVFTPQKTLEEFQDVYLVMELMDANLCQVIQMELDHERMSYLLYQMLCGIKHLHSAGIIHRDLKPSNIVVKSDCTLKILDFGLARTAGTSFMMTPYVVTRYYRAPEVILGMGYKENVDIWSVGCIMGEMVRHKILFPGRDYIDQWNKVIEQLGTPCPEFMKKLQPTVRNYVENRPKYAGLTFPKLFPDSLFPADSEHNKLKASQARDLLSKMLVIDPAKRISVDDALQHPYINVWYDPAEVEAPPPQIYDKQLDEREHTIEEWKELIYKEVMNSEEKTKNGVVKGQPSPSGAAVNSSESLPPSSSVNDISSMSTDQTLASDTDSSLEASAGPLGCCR
Chain of ERBB3 (P21860 20-1342): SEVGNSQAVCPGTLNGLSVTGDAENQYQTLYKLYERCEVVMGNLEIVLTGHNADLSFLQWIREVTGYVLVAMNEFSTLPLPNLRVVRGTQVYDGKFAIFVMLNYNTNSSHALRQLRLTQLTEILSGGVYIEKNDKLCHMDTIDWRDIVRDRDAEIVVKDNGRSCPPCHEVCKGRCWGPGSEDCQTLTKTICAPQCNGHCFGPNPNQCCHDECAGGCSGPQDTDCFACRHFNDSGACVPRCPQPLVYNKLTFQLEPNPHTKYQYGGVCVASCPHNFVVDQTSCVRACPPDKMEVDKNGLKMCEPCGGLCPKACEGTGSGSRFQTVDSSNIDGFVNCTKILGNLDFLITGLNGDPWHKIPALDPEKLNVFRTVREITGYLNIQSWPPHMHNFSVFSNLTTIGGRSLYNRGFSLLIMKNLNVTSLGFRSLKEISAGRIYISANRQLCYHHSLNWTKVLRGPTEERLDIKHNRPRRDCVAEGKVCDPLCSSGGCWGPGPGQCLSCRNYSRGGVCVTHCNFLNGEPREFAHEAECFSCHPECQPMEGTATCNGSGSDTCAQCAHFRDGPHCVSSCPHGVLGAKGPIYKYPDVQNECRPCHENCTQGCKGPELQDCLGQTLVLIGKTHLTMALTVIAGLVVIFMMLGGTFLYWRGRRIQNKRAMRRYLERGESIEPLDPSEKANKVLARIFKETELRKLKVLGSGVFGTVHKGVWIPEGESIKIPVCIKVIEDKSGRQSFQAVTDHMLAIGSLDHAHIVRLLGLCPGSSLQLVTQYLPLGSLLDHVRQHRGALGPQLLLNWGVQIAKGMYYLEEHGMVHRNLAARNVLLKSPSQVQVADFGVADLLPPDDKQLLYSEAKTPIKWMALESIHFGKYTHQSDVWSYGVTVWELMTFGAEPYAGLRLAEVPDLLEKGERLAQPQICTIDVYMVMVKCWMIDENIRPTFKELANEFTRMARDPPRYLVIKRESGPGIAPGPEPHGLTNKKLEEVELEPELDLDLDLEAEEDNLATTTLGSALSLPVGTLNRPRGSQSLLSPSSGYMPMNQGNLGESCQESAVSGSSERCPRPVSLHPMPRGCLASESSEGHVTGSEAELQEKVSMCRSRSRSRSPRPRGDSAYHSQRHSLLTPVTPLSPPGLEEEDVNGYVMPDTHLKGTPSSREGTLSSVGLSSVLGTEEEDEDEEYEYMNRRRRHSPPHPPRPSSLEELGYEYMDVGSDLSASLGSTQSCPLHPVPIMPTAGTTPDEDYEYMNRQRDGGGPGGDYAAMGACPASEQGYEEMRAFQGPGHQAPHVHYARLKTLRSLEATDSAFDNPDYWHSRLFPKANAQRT

Q: With `Cc1cc(Oc2cc(NC(=O)C3CC3)ncn2)ccc1NC(=O)Nc1ccc(Cl)c(C(F)(F)F)c1` [CBT-102] as the molecule, how does the remaining activity at 1 µM [1] read?
A: The remaining activity at 1 µM was 100%.

Q: What about the remaining activity at 1 µM [2] of the same molecule?
A: The remaining activity at 1 µM was 96%.

Q: What about the remaining activity at 1 µM [3] of the same molecule?
A: The remaining activity at 1 µM was 100%.

Q: What about the remaining activity at 1 µM [4] of the same molecule?
A: The remaining activity at 1 µM was 85%.

Q: What about the remaining activity at 1 µM [5] of the same molecule?
A: Its remaining activity at 1 µM is 100%.

Q: And the remaining activity at 1 µM [6]?
A: The remaining activity at 1 µM was 92%.
